Laboratory results reported in patent US12503475B2 (Centessa Pharmaceuticals (UK) Limited, priority 2020, dated 2025).
Read-outs that look alike come from different tables or passages of the source.

Target: T1, human orexin type 2 receptor (hOX2R) (Homo sapiens, UniProt O43614)
T1 construct: expressed in transfected cells
T1 sequence (O43614 1-444): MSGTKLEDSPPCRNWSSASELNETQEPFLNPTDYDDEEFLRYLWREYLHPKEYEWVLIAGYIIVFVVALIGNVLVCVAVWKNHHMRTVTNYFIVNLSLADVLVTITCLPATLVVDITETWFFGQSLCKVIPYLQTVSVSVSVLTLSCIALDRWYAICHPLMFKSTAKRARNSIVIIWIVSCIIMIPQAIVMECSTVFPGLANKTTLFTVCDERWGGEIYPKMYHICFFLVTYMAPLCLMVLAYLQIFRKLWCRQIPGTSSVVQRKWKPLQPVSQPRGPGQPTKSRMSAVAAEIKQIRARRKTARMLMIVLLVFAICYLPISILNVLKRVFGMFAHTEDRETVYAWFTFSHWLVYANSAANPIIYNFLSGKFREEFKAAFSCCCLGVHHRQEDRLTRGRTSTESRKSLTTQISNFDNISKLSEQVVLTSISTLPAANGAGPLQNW
Assay: Measurement of orexin type 2 receptor agonist activity (FLIPR calcium fluorescence)
Assay type: cell-based
Conditions: for EC50: read-out: hOx2 pEC50 (converted); for Emax: CHO, read-out: hOx2 Emax (%)
Outline: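 Agonism was read as fluorescence in cells stably expressing human OX2R. E. is the response at 10 μM relative to orexin A as full agonist (100%).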

[1] = CHO cells expressing hOX2R, FLIPR calcium fluorescence

SMILES	EC50 [1] [nM]	Emax [1] [%]	Emax [%]
CS(=O)(=O)N[C@@H]1[C@H](Cc2cccc(-c3ccccc3)c2)N(C(=O)[C@H](O)CF)CC12CC2 [Compound 62, N-((6S,7S)-6-([1,1′-biphenyl]-3-ylmethyl)-5-((S)-3-fluoro-2-hydroxypropanoyl)-5-azaspiro[2.4]heptan-7-yl)methanesulfonamide]	10 to 100	90 to 100	–
CCS(=O)(=O)NC1C(Cc2cccc(-c3ccccc3)c2)N(C(=O)OC)CC12CC2 (racemic) [Compound 6, methyl 6-([1,1′-biphenyl]-3-ylmethyl)-7-(ethylsulfonamido)-5-azaspiro[2.4]heptane-5-carboxylate]	100 to 1000	70 to 80	–
CC(C)(O)C(=O)N1CC2(CC2)[C@H](NS(=O)(=O)C(F)F)[C@@H]1Cc1cccc(-c2cc(F)cc(F)c2)c1F [Compound 195, 1,1-difluoro-N-((6S,7S)-5-(2-hydroxy-2-methylpropanoyl)-6-((2,3′,5′-trifluoro-[1,1′-biphenyl]-3-yl)methyl)-5-azaspiro[2.4]heptan-7-yl)methanesulfonamide]	1 to 10	90 to 100	–
CCNC(=O)N1CC2(CC2)C(NS(C)(=O)=O)C1Cc1cccc(-c2ccccc2)c1F (racemic) [Compound 38, N-ethyl-6-((2-fluoro-[1,1′-biphenyl]-3-yl)methyl)-7-(methylsulfonamido)-5-azaspiro[2.4]heptane-5-carboxamide]	1 to 10	90 to 100	–
CS(=O)(=O)NC1C(Cc2cccc(-c3ccccc3)c2F)N(C(=O)N2CCC2)CC12CC2 (racemic) [Compound 18, N-(5-(azetidine-1-carbonyl)-6-((2-fluoro-[1,1′-biphenyl]-3-yl)methyl)-5-azaspiro[2.4]heptan-7-yl)methanesulfonamide]	1 to 10	90 to 100	–
CN(C)S(=O)(=O)N[C@@H]1[C@H](Cc2cccc(-c3ccccc3)c2F)N(C(=O)[C@H]2CCO2)CC12CC2 [Compound 64, N-((6S,7S)-6-((2-fluoro-[1,1′-biphenyl]-3-yl)methyl)-5-((R)-oxetane-2-carbonyl)-5-azaspiro[2.4]heptan-7-yl)-N,N-dimethylsulfuric diamide]	0.0794 to 1	90 to 100	–
C[C@](O)(C(=O)N1CC2(CC2)[C@H](NS(=O)(=O)CF)[C@@H]1Cc1cccc(-c2ccccc2)c1F)C(F)F [Compound 234, N-((6S,7S)-5-((S)-3,3-difluoro-2-hydroxy-2-methylpropanoyl)-6-((2-fluoro-[1,1′-biphenyl]-3-yl)methyl)-5-azaspiro[2.4]heptan-7-yl)-1-fluoromethanesulfonamide]	1 to 10	–	90 to 100
N#CCS(=O)(=O)N[C@@H]1[C@H](Cc2cccc(-c3ccccc3)c2F)N(C(=O)[C@H]2CCO2)CC12CC2 [Compound 362, 1-cyano-N-((6S,7S)-6-((2-fluoro-[1,1′-biphenyl]-3-yl)methyl)-5-((R)-oxetane-2-carbonyl)-5-azaspiro[2.4]heptan-7-yl)methanesulfonamide]	10 to 100	90 to 100	–
O=C(NCC(F)F)N1CC2(CC2)[C@H](NS(=O)(=O)C(F)F)[C@@H]1Cc1cccc(-c2cc(F)cc(F)c2)c1F [Compound 382, (6S,7S)-N-(2,2-difluoroethyl)-7-((difluoromethyl)sulfonamido)-6-((2,3′,5′-trifluoro-[1,1′-biphenyl]-3-yl)methyl)-5-azaspiro[2.4]heptane-5-carboxamide]	0.0794 to 1	90 to 100	–
COC1(C(=O)N2CC3(CC3)[C@H](NS(=O)(=O)CF)[C@@H]2Cc2cccc(-c3ccccc3)c2F)CC1 [Compound 180, 1-fluoro-N-((6S,7S)-6-((2-fluoro-[1,1′-biphenyl]-3-yl)methyl)-5-(1-methoxycyclopropane-1-carbonyl)-5-azaspiro[2.4]heptan-7-yl)methanesulfonamide]	1 to 10	90 to 100	–
O=C(NCC1COC1)N1CC2(CC2)[C@H](NS(=O)(=O)CF)[C@@H]1Cc1cccc(-c2ccccc2)c1F [Compound 366, (6S,7S)-6-((2-fluoro-[1,1′-biphenyl]-3-yl)methyl)-7-((fluoromethyl)sulfonamido)-N-(oxetan-3-ylmethyl)-5-azaspiro[2.4]heptane-5-carboxamide]	1 to 10	90 to 100	–
CS(=O)(=O)N[C@@H]1[C@H](Cc2cccc(-c3ccccc3)c2)N(C(=O)C2CCC2)CC12CC2 (racemic) [Compound 302, N-(-6-([1,1′-biphenyl]-3-ylmethyl)-5-(cyclobutanecarbonyl)-5-azaspiro[2.4]heptan-7-yl)methanesulfonamide]	1 to 10	90 to 100	–
C[C@H](F)CNC(=O)N1CC2(CC2)[C@H](NS(C)(=O)=O)[C@@H]1Cc1cccc(-c2ccccc2)c1F [Compound 84, (6S,7S)-6-((2-fluoro-[1,1′-biphenyl]-3-yl)methyl)-N-((S)-2-fluoropropyl)-7-(methylsulfonamido)-5-azaspiro[2.4]heptane-5-carboxamide]	0.0794 to 1	90 to 100	–
CCN(C)S(=O)(=O)N[C@@H]1[C@H](Cc2cccc(-c3ccccc3)c2)N(C(=O)[C@H]2CCO2)CC12CC2 [Compound 78, N-((6S,7S)-6-([1,1′-biphenyl]-3-ylmethyl)-5-((R)-oxetane-2-carbonyl)-5-azaspiro[2.4]heptan-7-yl)-N-methyl-N-ethylsulfuric diamide]	10 to 100	90 to 100	–
CS(=O)(=O)N[C@@H]1[C@H](Cc2cccc(-c3cc(F)cc(F)c3)c2F)N(C(=O)N2CCC2)CC12CC2 [Compound 32, N-((6S,7S)-5-(azetidine-1-carbonyl)-6-((2,3′,5′-trifluoro-[1,1′-biphenyl]-3-yl)methyl)-5-azaspiro[2.4]heptan-7-yl)methanesulfonamide]	0.0794 to 1	90 to 100	–
CS(=O)(=O)N[C@@H]1[C@H](Cc2cccc(-c3ccccc3)c2)N(C(=O)C23CC2C3)CC12CC2 (stereo partly drawn) [Compound 113, N-((6S,7S)-6-([1,1′-biphenyl]-3-ylmethyl)-5-(bicyclo[1.1.0]butane-1-carbonyl)-5-azaspiro[2.4]heptan-7-yl)methanesulfonamide]	1 to 10	90 to 100	–
O=C([C@@H](O)C1CC1)N1CC2(CC2)[C@H](NS(=O)(=O)C(F)F)[C@@H]1Cc1cccc(-c2ccccc2)c1F [Compound 170, N-((6S 7S)-5-((S)-2-cyclopropyl-2-hydroxyacetyl)-6-((2-fluoro-[1,1′-biphenyl]-3-yl)methyl)-5-azaspiro[2.4]heptan-7-yl)-1,1-difluoromethanesulfonamide]	1 to 10	90 to 100	–
CCCNC(=O)N1CC2(CC2)[C@H](NS(C)(=O)=O)[C@@H]1Cc1cccc(-c2ccccc2)c1F [Compound 111, (6S,7S)-6-((2-fluoro-[1,1′-biphenyl]-3-yl)methyl)-7-(methylsulfonamido)-N-propyl-5- .azaspiro[2.4]heptane-5-carboxamide]	1 to 10	90 to 100	–
N#CC1(C(=O)N2CC3(CC3)[C@H](NS(=O)(=O)CF)[C@@H]2Cc2cccc(-c3cc(F)cc(F)c3)c2F)CCC1 [Compound 231, N-((6S,7S)-5-(1-cyanocyclobutane-1-carbonyl)-6-((2,3′,5′-trifluoro-[1,1′-biphenyl]-3-yl)methyl)-5-azaspiro[2.4]heptan-7-yl)-1-fluoromethanesulfonamide]	1 to 10	90 to 100	–
CCS(=O)(=O)N[C@@H]1[C@H](Cc2cccc(-c3ccccc3)c2)N(C(=O)[C@H]2CCO2)CC12CC2 [Compound 41]	1 to 10	90 to 100	–
CCS(=O)(=O)NC1C(Cc2cc(F)cc(-c3ccccc3)c2F)N(C(=O)[C@H](O)CF)CC12CC2 (stereo in doubt) [Compound 356, N-((6S,7S)-6-((2,5-difluoro-[1,1′-biphenyl]-3-yl)methyl)-5-((S)-3-fluoro-2-hydroxypropanoyl)-5-azaspiro[2.4]heptan-7-yl)ethanesulfonamide]	10 to 100	90 to 100	–
N#CC1(C(=O)N2CC3(CC3)[C@H](NS(=O)(=O)CF)[C@@H]2Cc2cc(F)cc(-c3ccccc3)c2F)CCC1 [Compound 413, N-((6S,7S)-5-(1-cyanocyclobutane-1-carbonyl)-6-((2,5-difluoro-[1,1′-biphenyl]-3-yl)methyl)-5-azaspiro[2.4]heptan-7-yl)-1-fluoromethanesulfonamide]	0.0794 to 1	90 to 100	–
CS(=O)(=O)NC1C(Cc2cccc(-c3ccccc3)c2)N(C(=O)[C@H]2C[C@H](F)C2)CC12CC2 (mixture of isomers) [Compound 49, N-(6-([1,1′-biphenyl]-3-ylmethyl)-5-((1r,3r)-3-fluorocyclobutane-1-carbonyl)-5-azaspiro[2.4]heptan-7-yl)methanesulfonamide]	1 to 10	90 to 100	–
CN(C1CC1)S(=O)(=O)N[C@@H]1[C@H](Cc2cccc(-c3ccccc3)c2)N(C(=O)[C@H]2CCO2)CC12CC2 [Compound 97]	10 to 100	80 to 90	–
CS(=O)(=O)N[C@@H]1[C@H](Cc2cccc(-c3ccccc3)c2F)N(C(=O)[C@H]2CCO2)CC12CC2 [Compound 21, N-((6S,7S)-6-((2-fluoro-[1,1′-biphenyl]-3-yl)methyl)-5-((R)-oxetane-2-carbonyl)-5-azaspiro[2.4]heptan-7-yl)methanesulfonamide]	1 to 10	90 to 100	–
